Key:
EGFR (ErbB1) = target: T1, EGFR (ErbB1) (Homo sapiens, UniProt P00533); experiment: Z'-LYTE kinase inhibition assay (Invitrogen), EGFR; assay type: biochemical
T1 construct: purchased Invitrogen
How it was run: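 Z'-LYTE FRET assay: 1.1-5.25 ng EGFR with 2 μM Tyr 04 peptide in 50 mM HEPES pH 7.5, 10 mM MgCl2, 2 mM MnCl2, 1 mM EGTA, 1 mM DTT, 1% DMSO; 60 min kinase reaction then 60 min development at room temperature. IC50 from 10-point 3-fold titrations, percent inhibition vs concentration.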

EGFR (ErbB1) T790M L858R = target: T2, EGFR (ErbB1) T790M L858R (Homo sapiens, UniProt P00533, L858R/T790M); experiment: Z'-LYTE kinase inhibition assay (Invitrogen), EGFR L858R/T790M; assay type: biochemical
T2 construct: purchased Invitrogen
How it was run: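 Z′-LYTE FRET assay with EGFR L858R/T790M (0.38-4.22 ng) and 2 μM Tyr 04 peptide in 50 mM HEPES pH 7.0, 10 mM MgCl2, 1 mM EGTA, 1% DMSO; 1 h kinase reaction at room temperature, then 1 h development. 10-point 3-fold titrations; IC50 from concentration vs % inhibition.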

BTK = target: T3, BTK (Homo sapiens, UniProt Q06187); experiment: Z'-LYTE kinase inhibition assay (Invitrogen), BTK; assay type: biochemical; conditions: compound at 100 nM; [ATP] = Km
T3 construct: purchased Invitrogen
How it was run: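 Z′-LYTE FRET read-out with Tyr 01 peptide 2 μM and 1.04-10.4 ng kinase in HEPES pH 7.5, MgCl2, EGTA, BRIJ-35; 1 h room temperature reaction, then 1 h development.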

A549 cells = experiment: MTT cell growth inhibition assay, A549; assay type: cell-based; conditions: Homo sapiens, A549 cells (KRAS mutation), 72 h
Protocol: (§1) Inhibition of cell growth by compounds was measured using MTT assay (Mosmann, T., Journal of Immunological Methods, 1983, 65, 55-63). Tumor cell lines were purchased from ATCC (American Type Culture Collection, Manassas, Va.). All cell lines were maintained in RPMI 1640 (Hyclone) supplemented with 10% fetal bovine serum (FBS, Hyclone), glutamine (2 mM, Hyclone), and antibiotics (penicillin 100 U/mL and streptomycin 50 μg/mL) at 37° C. in a humidified atmosphere of 5% CO2 in air. Taxol (as a positive control, Sigma) and compounds were dissolved in DMSO (Sigma), and the final concentration of DMSO in the medium was 1%. Tumor cells were plated in 96-well plates at densities of about 4000 cells/well of a 96-well plate and allowed to adhere/grow for 24 h. They were then treated with various concentrations of drug for 72 h. 3-(4,5-Dimethylthiazol-2-yl)-2,5-diphenyltetrazolium bromide (MTT, Sigma) was used to determine the number of viable cells at the time of compound addition and the number of cells remaining after 72 h compound exposure. The number of cells remaining after 72 h was compared to the number of viable cells at the time of compound addition by measuring the absorbance at 570 nm, allowing for the calculation of growth inhibition.
(§2) All concentrations of compounds were tested in triplicate and controls were averaged over 4 wells. IC50 was calculated by plotting the concentration of compound vs the percentage of inhibition in treated wells using GraphPad Prism 5.
(§3) Tables 5 show IC50 values of several compounds of the invention in A549, A431, H1299, and H1975 human cancer cells. A549 cells have a mutation on KRAS, H3255 cells have L858R mutation, and H1975 cells have double EGFR mutations (L858R/T790M). The scale utilized in Table 5 is as follows: +++ less than 100 nM; ++ between 100 nM and 500 nM; and + greater than 500 nM.

A431 cells = experiment: MTT cell growth inhibition assay, A431; assay type: cell-based; conditions: Homo sapiens, A-431, 72 h
Protocol: as §1, §2, §3

H3255 cells = experiment: MTT cell growth inhibition assay, H3255; assay type: cell-based; conditions: Homo sapiens, NCI-H3255, H3255 cells (L858R mutation), 72 h
Protocol: as §1, §2, §3

H1975 cells = experiment: MTT cell growth inhibition assay, H1975; assay type: cell-based; conditions: Homo sapiens, NCI-H1975, H1975 cells (EGFR L858R/T790M), 72 h
Protocol: as §1, §2, §3

T2 sequence (P00533 25-1210 T790M/L858R): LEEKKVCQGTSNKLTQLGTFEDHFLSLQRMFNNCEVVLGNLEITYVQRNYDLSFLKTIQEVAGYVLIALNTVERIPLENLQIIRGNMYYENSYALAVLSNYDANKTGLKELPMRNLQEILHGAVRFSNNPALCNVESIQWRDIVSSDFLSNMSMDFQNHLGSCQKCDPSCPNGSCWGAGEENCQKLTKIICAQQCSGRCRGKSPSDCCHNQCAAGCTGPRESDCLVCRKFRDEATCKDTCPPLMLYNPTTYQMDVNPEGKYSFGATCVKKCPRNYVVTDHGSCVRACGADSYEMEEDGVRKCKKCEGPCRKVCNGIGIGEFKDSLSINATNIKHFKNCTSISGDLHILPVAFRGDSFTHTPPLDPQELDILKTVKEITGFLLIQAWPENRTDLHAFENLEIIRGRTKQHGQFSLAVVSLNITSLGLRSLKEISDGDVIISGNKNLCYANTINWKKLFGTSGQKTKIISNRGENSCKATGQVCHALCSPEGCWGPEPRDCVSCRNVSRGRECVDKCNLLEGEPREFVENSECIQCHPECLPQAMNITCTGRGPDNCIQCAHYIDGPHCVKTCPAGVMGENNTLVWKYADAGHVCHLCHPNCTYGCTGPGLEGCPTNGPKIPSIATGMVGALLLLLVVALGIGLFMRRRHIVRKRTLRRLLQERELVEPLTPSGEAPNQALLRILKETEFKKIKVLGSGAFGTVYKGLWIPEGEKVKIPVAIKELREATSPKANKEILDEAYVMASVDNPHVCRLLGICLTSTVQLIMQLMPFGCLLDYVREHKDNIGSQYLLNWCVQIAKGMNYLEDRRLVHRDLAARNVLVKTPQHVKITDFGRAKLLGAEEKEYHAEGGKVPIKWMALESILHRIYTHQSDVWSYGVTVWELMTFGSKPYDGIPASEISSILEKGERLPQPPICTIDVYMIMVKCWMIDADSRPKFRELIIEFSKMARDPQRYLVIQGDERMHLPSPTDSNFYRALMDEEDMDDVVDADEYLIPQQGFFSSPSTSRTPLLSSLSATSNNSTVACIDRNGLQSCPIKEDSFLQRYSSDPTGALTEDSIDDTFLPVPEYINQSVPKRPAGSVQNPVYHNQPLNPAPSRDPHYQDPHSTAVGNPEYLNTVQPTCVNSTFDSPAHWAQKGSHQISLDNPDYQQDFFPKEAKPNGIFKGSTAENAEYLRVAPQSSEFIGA
T1 sequence (P00533 25-1210): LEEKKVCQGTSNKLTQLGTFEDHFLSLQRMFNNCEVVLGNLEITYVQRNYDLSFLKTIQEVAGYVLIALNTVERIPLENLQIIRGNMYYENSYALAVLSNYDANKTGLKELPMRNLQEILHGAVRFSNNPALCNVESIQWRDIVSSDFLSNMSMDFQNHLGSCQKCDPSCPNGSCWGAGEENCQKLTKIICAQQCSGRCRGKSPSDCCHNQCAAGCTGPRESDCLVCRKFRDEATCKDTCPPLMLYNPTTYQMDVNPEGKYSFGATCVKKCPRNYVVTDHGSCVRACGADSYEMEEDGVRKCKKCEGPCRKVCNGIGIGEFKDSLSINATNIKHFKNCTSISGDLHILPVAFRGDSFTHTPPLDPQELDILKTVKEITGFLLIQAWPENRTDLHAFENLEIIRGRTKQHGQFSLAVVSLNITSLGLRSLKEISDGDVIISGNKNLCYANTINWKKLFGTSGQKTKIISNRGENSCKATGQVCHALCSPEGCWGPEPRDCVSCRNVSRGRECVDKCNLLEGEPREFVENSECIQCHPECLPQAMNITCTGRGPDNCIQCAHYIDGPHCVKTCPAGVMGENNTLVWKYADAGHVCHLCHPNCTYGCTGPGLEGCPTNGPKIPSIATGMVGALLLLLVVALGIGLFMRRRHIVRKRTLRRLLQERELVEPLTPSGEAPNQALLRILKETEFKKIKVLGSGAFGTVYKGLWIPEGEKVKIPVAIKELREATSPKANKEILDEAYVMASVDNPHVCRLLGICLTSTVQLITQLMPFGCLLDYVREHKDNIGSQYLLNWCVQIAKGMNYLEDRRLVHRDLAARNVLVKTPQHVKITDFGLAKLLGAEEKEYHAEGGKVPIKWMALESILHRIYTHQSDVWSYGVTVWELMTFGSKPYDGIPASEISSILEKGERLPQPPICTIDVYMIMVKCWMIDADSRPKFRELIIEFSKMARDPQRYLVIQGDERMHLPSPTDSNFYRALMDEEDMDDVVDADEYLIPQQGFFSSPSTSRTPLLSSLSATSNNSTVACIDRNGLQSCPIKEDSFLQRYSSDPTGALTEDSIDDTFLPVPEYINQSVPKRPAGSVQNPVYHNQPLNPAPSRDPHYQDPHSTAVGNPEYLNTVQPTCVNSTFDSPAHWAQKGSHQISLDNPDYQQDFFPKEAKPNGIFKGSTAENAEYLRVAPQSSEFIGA
T3 sequence (Q06187 whole entry): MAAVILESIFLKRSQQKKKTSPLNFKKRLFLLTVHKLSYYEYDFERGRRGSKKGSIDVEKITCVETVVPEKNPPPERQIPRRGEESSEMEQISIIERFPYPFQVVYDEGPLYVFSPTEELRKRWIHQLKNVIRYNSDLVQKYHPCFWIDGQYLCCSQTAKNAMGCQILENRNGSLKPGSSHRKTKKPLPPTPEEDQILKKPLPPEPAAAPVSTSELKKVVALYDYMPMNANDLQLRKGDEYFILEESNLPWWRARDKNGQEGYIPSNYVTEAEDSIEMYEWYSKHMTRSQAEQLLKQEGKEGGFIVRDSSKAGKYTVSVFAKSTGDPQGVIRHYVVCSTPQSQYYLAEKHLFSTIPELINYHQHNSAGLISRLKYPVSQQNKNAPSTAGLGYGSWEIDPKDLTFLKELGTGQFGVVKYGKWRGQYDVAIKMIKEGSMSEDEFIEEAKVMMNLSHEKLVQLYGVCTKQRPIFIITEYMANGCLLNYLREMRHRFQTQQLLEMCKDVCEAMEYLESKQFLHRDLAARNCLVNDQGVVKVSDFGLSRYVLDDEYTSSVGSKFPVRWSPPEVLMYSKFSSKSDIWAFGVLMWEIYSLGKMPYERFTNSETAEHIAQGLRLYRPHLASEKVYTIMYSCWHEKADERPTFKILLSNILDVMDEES

C=CC(=O)Nc1cc(Nc2ncc3cccc(-c4cccc(F)c4)c3n2)ccc1N(C)CCN(C)C [Example C006, N-(2-((2-(dimethylamino)ethyl)(methyl)amino)-5-((8-(3-fluorophenyl)quinazolin-2-yl)amino)phenyl)acrylamide]
IC50 (EGFR (ErbB1)): < 100 nM | inhibition at 0.1 µM (EGFR (ErbB1); compound at 100 nM, [ATP] = Km): > 50% | IC50 (EGFR (ErbB1) T790M L858R): < 100 nM | inhibition at 0.1 µM (EGFR (ErbB1) T790M L858R; compound at 100 nM, [ATP] = Km): > 50% | inhibition at 0.1 µM (BTK): > 50% | IC50 (A549 cells): < 100 nM | IC50 (A431 cells): < 100 nM | IC50 (H3255 cells): < 100 nM | IC50 (H1975 cells): < 100 nM
